Measurements taken from PubChem BioAssay (NCI).
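Interpolation was linear, between the two tested concentrations surrounding the appropriate level; five concentrations were tested over 48 hours in 96-well plates. TGI: concentration producing complete growth inhibition.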

Key:
Test in all cases: inhibition of tumour cell growth, NCI panel, 48 h
[1] = test system: KM12 colon
[2] = test system: HCT-15 colon
[3] = test system: COLO 205 colon
[4] = test system: U251 CNS
[5] = test system: RPMI-8226 leukemia
[6] = test system: CCRF-CEM leukemia
[7] = test system: MOLT-4 leukemia
[8] = test system: K-562 leukemia
[9] = test system: HS 578T breast
[10] = test system: 786-0 renal
[11] = test system: NCI-H460 lung
[12] = test system: OVCAR-4 ovarian
[13] = test system: MCF7 breast
[14] = test system: SNB-19 CNS
[15] = test system: SF-539 CNS
[16] = test system: MDA-MB-435
[17] = test system: UACC-257 melanoma
[18] = test system: LOX IMVI melanoma
[19] = test system: SR leukemia
[20] = test system: SK-MEL-2 melanoma
[21] = test system: SK-OV-3 ovarian
[22] = test system: DU-145 prostate
[23] = test system: HOP-92 NSCLC
[24] = test system: EKVX NSCLC
[25] = test system: HCC-2998 colon
[26] = test system: OVCAR-5 ovarian
[27] = test system: IGROV1 ovarian
[28] = test system: T-47D breast
[29] = test system: M14 melanoma
[30] = test system: HL-60(TB) leukemia
[31] = test system: SK-MEL-5 melanoma
[32] = test system: CAKI-1 renal
[33] = test system: SF-268 CNS
[34] = test system: MDA-MB-231 breast
[35] = test system: NCI-H522 lung
[36] = test system: NCI/ADR-RES ovarian
[37] = test system: PC-3 prostate
[38] = test system: OVCAR-3 ovarian
[39] = test system: RXF 393 renal
[40] = test system: OVCAR-8 ovarian
[41] = test system: TK-10 renal
[42] = test system: A549 NSCLC
[43] = test system: BT-549 breast
[44] = test system: MDA-N
[45] = test system: UACC-62 melanoma
[46] = test system: SW-620 colon
[47] = test system: NCI-H23 lung
[48] = test system: MALME-3M melanoma
[49] = test system: ACHN renal
[50] = test system: SN12C renal
[51] = test system: HT29 colon
[52] = test system: A498 renal
[53] = test system: HCT-116 colon
[54] = test system: NCI-H226 lung
[55] = test system: SF-295 CNS
[56] = test system: UO-31 renal
[57] = test system: HOP-62 NSCLC
[58] = test system: SK-MEL-28 melanoma
[59] = test system: SNB-75 CNS

In the case of `COc1cc2c(cc1OC)-c1cc3cc(OC)c(OC)cc3c(=O)n1CC2`, the TGI [1] is reported as greater than 100 µM, the TGI [2] is reported as greater than 100 µM and the TGI [3] is reported as greater than 100 µM. The TGI [4] was greater than 100 µM, the TGI [5] was 47.2 µM and the TGI [6] was greater than 100 µM. For the same compound, the TGI [7] was greater than 100 µM, the TGI [8] was greater than 100 µM and the TGI [9] was greater than 57.5 µM. The TGI [10] was greater than 100 µM, the TGI [11] was greater than 100 µM and the TGI [12] was greater than 100 µM. The TGI [13] was greater than 100 µM, the TGI [14] was greater than 100 µM and the TGI [15] was 50.9 µM. For the same compound, the TGI [16] was greater than 100 µM, the TGI [17] was greater than 78.4 µM and the TGI [18] was greater than 100 µM. For the same compound, the TGI [19] was greater than 100 µM, the TGI [20] was greater than 72.9 µM and the TGI [21] was greater than 100 µM. The TGI [22] was greater than 51.5 µM, the TGI [23] was 10.5 µM and the TGI [24] was greater than 100 µM. It also gave a TGI [25] greater than 100 µM, a TGI [26] greater than 100 µM and a TGI [27] greater than 62.3 µM. It also gave a TGI [28] of 8.34 µM, a TGI [29] greater than 100 µM and a TGI [30] greater than 100 µM. For the same compound, the TGI [31] was 25.9 µM, the TGI [32] was greater than 30.3 µM and the TGI [33] was greater than 100 µM. The TGI [34] was greater than 70.4 µM, the TGI [35] was greater than 25.7 µM and the TGI [36] was greater than 80.1 µM. It also gave a TGI [37] greater than 100 µM, a TGI [38] greater than 100 µM and a TGI [39] greater than 69.8 µM. It also gave a TGI [40] greater than 100 µM, a TGI [41] greater than 100 µM and a TGI [42] greater than 100 µM. It also gave a TGI [43] greater than 100 µM, a TGI [44] greater than 100 µM and a TGI [45] of 34.7 µM. The TGI [46] was greater than 100 µM, the TGI [47] was greater than 100 µM and the TGI [48] was greater than 79.5 µM. The TGI [49] was greater than 86 µM, the TGI [50] was greater than 100 µM and the TGI [51] was greater than 100 µM. It also gave a TGI [52] of 45.2 µM, a TGI [53] greater than 53.4 µM and a TGI [54] greater than 85.9 µM. The TGI [55] was greater than 100 µM, the TGI [56] was 13.2 µM and the TGI [57] was greater than 72.8 µM. It also gave a TGI [58] greater than 100 µM and a TGI [59] greater than 79.3 µM.
